Experimental data taken from patent US20110039825A1, “LIGANDS OF ALPHA-ADRENOCEPTORS, DOPAMINE, HISTAMINE, IMIDAZOLINE AND SEROTONIN RECEPTORS AND THEIR USE” (Alla Chem, LLC, priority 2007, published 2011).
pIC50, pKi: −log10 of the molar value.

What was measured:
human 5-HT7 receptor = biological target: T1, human 5-HT7 receptor (Homo sapiens, UniProt P34969); assay: radioligand binding to serotonin receptor 5-HT7 ([3H] Lysergic acid diethylamide)
T1 construct: expressed in transfected cells; host or cells: CHO
T1 sequence (P34969 whole entry): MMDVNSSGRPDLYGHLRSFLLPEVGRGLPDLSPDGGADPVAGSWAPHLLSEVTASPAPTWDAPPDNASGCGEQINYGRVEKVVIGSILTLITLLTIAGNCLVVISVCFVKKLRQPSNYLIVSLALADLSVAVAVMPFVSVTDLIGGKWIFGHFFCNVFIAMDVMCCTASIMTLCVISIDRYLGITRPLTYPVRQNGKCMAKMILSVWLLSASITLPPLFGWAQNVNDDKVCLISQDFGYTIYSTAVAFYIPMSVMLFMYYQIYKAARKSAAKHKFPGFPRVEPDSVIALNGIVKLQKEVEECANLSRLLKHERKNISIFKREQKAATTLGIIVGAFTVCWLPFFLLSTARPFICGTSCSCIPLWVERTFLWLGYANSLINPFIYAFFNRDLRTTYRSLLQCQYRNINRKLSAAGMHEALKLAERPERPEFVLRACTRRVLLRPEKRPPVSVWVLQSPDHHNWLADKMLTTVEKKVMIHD
Description: For this purpose sDNA of human 5-HT7 receptor is expressed in CHO cells as it was described in [Shen Y, Monsma F J Jr, Metcalf M A, Jose P A, Hamblin M W, and Sibley DR. […] J. Biol. Chem. 1993, 268, 18200-18204]. […] J. Pharmacol. Exp. Ther. 1994, 268:1403-1410]. […] Methiothepin is used as positive control.

human D4.2 receptor = biological target: T2, human D4.2 receptor (Homo sapiens, UniProt P21917, DEL265-296); assay: radioligand binding to dopamine receptor D4.2 ([3H] Spiperone); details: 10 μM ligand
T2 sequence (P21917 with tags, fused parts or gaps DEL265-296): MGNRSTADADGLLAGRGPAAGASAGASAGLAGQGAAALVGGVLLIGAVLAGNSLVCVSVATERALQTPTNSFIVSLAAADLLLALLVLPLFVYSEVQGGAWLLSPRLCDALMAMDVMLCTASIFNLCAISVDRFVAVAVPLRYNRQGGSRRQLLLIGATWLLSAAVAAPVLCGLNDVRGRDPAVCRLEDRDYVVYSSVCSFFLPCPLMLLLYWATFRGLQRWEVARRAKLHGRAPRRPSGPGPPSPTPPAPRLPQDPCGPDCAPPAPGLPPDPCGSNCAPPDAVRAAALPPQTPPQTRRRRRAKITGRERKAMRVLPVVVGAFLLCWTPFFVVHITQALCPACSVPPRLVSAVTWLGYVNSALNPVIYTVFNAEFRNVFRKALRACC
Protocol: Screening of the disclosed compounds for potential ability to interact with dopamine receptor D4.2 is carried out by method of radioligand binding. […] From the cells transfected in this way membrane species are prepared by homogenization of these cells in glass homogenizer with the subsequent separation of plasmatic membranes from cell nuclei, mitochondrias and cell wreckages by differential centrifugation. […] After incubation samples are filtered in vacuo on glass-microfiber filters G/F (Millipor, USA), filters are washed three times with cold solution of medium and radioactivity is measured by scintillation counter MicroBeta 340 (Perkin Elmer, USA). Nonspecific binding which makes up 10% of the overall binding is determined by incubation of membrane species with radioligand in the presence of 10 μM of Haloperidol.
Spiperone is used as positive control. Tested compounds' binding to the receptor is determined by their ability to displace radioligand and expressed in percent of displacement (% I). Values of % I are calculated according to the following equation:
wherein: TA—is overall radioactivity in the presence of radioligand only, CA—is radioactivity in the presence of radioligand and tested compound and NA—is radioactivity in the presence of radioligand and Haloperidol (10 μM).

human α1D receptor = biological target: T3, human α1D receptor (Homo sapiens, UniProt P25100); assay: radioligand binding to adrenergic receptor α1D ([3H] Prazosin)
T3 construct: expressed in transfected cells; host or cells: HEK-293
T3 sequence (P25100 1-572): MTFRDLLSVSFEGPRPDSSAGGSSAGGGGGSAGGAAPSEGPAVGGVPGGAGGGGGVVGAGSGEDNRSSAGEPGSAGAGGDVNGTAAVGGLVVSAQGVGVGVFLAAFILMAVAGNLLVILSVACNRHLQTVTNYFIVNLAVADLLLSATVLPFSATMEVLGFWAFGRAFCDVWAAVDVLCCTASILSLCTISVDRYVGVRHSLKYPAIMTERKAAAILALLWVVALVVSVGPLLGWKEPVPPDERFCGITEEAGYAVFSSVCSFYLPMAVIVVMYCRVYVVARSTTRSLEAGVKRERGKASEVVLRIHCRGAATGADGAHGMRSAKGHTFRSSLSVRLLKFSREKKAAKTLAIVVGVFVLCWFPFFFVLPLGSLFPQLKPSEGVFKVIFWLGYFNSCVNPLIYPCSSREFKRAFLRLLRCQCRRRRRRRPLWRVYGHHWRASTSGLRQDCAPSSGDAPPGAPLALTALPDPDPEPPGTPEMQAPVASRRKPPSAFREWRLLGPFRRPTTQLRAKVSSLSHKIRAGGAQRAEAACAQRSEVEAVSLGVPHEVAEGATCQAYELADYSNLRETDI
Description: 6-C. […] For this purpose sDNA of human α1D receptor is expressed in HEK-293 cells, as it was described in [T L Theroux, T A Esbenshade, R D Peavy and K P Minneman. Coupling efficiencies of human alpha 1-adrenergic receptor subtypes: titration of receptor density and responsiveness with inducible and repressible expression vectors. Mol. Pharmacol.; 50: 1376-1387, 1996]. […] Prazosin is used as positive control.

human H2 receptor = biological target: T4, human H2 receptor (Homo sapiens, UniProt P25021); assay: radioligand binding to histamine receptor H2 ([125I] Aminopotentidine); details: 10 μM ligand
T4 construct: expressed in transfected cells; host or cells: CHO-K1
T4 sequence (P25021 whole entry): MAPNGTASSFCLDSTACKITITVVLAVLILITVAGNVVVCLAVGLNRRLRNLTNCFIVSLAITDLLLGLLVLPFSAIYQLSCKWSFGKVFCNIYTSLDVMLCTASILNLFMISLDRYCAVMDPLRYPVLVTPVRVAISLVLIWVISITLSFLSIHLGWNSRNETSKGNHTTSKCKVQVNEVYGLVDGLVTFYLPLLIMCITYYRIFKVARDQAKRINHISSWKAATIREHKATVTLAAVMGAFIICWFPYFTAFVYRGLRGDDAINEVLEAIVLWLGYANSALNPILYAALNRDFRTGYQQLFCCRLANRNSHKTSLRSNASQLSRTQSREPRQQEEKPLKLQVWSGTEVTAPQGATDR
Description: Proc Natl Acad Sci USA. 87(5): 1658-1662, 1990]. […] Proc Natl Acad Sci USA. 87(5): 1658-1662, 1990]. […] Tiotidine is used as positive control.

recombinant human 5-HT1A = biological target: T5, recombinant human 5-HT1A (Homo sapiens, UniProt P08908); assay: radioligand binding to serotonin receptor 5-HT1A ([3H] 8-OH-DPAT)
T5 construct: expressed in transfected cells; host or cells: CHO
T5 sequence (P08908 1-422): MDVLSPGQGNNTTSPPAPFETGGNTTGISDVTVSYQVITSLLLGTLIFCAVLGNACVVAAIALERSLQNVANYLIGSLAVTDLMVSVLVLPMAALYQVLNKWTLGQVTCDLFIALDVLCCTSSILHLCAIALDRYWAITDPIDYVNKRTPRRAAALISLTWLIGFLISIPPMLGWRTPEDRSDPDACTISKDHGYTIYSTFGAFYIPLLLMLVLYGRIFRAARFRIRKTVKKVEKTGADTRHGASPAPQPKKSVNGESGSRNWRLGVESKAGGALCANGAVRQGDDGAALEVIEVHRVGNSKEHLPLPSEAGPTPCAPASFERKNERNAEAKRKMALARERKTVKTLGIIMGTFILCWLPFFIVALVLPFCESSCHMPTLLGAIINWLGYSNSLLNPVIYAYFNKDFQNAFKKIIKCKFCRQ
Description: J Pharmacol Exp Ther. 306(1): 301-309, 2003]. […] Metergoline is used as positive control.

[1] = biological target: T6, recombinant human 5-HT2B receptor (Homo sapiens, UniProt P41595); assay: radioligand binding to serotonin receptor 5-HT2B ([3H] Lysergic acid diethylamide)
T6 construct: expressed in transfected cells; host or cells: CHO-K1
T6 sequence (P41595 whole entry): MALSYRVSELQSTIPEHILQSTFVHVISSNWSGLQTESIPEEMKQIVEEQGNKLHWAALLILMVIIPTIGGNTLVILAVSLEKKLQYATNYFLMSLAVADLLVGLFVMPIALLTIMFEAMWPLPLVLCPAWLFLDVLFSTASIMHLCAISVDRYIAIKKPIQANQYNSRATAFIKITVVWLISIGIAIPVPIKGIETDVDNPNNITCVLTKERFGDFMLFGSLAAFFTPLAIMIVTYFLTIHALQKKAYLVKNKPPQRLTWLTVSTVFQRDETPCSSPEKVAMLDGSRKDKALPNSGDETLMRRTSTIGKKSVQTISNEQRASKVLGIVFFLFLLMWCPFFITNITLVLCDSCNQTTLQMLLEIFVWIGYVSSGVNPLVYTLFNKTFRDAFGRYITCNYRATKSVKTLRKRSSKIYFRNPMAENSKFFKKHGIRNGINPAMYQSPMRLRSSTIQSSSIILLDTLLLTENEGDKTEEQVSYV
Protocol: Screening of the disclosed compounds for potential ability to interact with serotonin receptor 5-HT2A is carried out by method of radioligand binding. For this purpose membrane species are prepared from CHO-K1 cells comprising recombinant human 5-HT2B receptor by homogenization of recombinant cells in glass homogenizer with the subsequent separation of plasmatic membranes from cell nuclei, mitochondrias and cell wreckages by differential centrifugation. […] After incubation the samples are filtered in vacuo on glass-microfiber filters G/F (Millipor, USA), filters are washed three times with cold solution of medium and radioactivity is measured by scintillation counter MicroBeta 340 (Perkin Elmer, USA). […] Ketanserin is used as positive control. The tested compounds' binding to the receptor is determined by their ability to displace the radioligand and is expressed in percent of displacement (% I). Values of % I are calculated according to the following equation:
wherein: TA—is the overall radioactivity in the presence of radioligand only, CA—is the radioactivity in the presence of radioligand and tested compound and NA—is the radioactivity in the presence of radioligand and Serotonin (10 μM).

adrenergic receptor α1A = biological target: T7, adrenergic receptor α1A (Rattus norvegicus, UniProt P43140); assay: radioligand binding to adrenergic receptor α1A ([3H] Prazosin)
T7 construct: membrane species from rat submaxillary glands (rat of Wistar breed) are prepared; from tissue; host or cells: rat (Wistar) submaxillary gland membranes
T7 sequence (P43140 1-466): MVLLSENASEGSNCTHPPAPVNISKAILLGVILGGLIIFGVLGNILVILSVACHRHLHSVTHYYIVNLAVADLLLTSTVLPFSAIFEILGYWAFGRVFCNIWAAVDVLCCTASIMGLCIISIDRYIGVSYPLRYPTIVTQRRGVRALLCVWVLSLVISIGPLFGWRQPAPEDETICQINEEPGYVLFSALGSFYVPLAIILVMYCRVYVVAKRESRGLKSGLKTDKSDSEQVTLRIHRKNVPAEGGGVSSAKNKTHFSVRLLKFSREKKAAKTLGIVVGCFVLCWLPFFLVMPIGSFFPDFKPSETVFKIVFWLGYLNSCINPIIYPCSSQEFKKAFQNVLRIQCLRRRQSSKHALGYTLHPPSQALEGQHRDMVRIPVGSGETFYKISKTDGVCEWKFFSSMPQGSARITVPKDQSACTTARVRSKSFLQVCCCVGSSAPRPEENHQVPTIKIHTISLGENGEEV
Protocol: Determination of investigated compounds' binding to α1A receptor was carried out according to the method described in [Michel A D, Loury D N and Whiting R l. Identification of a single α1A-adrenoceptor corresponding to the α1A-subtype in rat submaxillary gland. Br J. Pharmacol. 98:883-889, 1989]. […] Prazosin is used as positive control.

Cc1ccc2c(c1)[C@@H]1CN(C)CCC[C@@H]1N2CCc1ccc(C)nc1.Cl.Cl.Cl (relative stereo) [1.6.1(2)•3HCl]
5-HT7 % inhibition (human 5-HT7 receptor; 10 μM ligand): 8%
Dopamine receptor D4.2, % inhibition (human D4.2 receptor): −11%
α-Adrenoceptor α1D, % inhibition (human α1D receptor; 10 μM ligand): 87%
Histamine receptor H2, % inhibition (human H2 receptor): 66%
5-HT1A % inhibition (recombinant human 5-HT1A; 10 μM ligand): −9%

Cc1ccc2c(c1)c1c(n2CCc2ccccn2)CCN(C)C1.Cl.Cl [1.1.2(2-3)•2HCl]
nH 5-HT2B [1]: 0.913
pIC50 ([1]; read-out: IC50 5-HT2B): 5.99
pKi ([1]; read-out: Ki 5-HT2B): 6.19
inhibition at 1 µM (human 5-HT7 receptor; ligand concentration 1 μM): 100%
pIC50 (human α1D receptor): 6.55
pKi (human α1D receptor): 6.86
pIC50 (adrenergic receptor α1A): 6.35
pKi (adrenergic receptor α1A): 6.74
inhibition at 1 µM (recombinant human 5-HT1A; ligand concentration 1 μM): 53%

Cc1ccc2c(c1)[C@H]1CN(C)CCC[C@@H]1N2CCc1cccnc1 [1.6.2(10)•3HCl]
Dopamine receptor D4.2, % inhibition (human D4.2 receptor): 5%
α-Adrenoceptor α1D, % inhibition (human α1D receptor; 10 μM ligand): 86%
Histamine receptor H2, % inhibition (human H2 receptor): 69%
α-Adrenoceptor α1A, % inhibition (adrenergic receptor α1A; 10 μM ligand): 86%

CN1CCc2c(c3ccccc3n2Cc2ccccc2)C1 [1.9(1)•½NDSA, bis-(5-benzyl-2-methyl-2,3,4,5-tetrahydro-1H-pyrido[4,3-b]indole) naphtalene-1,5-disulfonate]
nH 5-HT2B [1]: 0.552
pIC50 (human α1D receptor): 5.88
pKi (human α1D receptor): 6.18
nH α1D (human α1D receptor): 1.05
α-Adrenoceptor α1D, % inhibition (human α1D receptor; 3 μM ligand): 70(3 μM) %
pIC50 (adrenergic receptor α1A): 6.29
pKi (adrenergic receptor α1A): 6.69
nH α1A (adrenergic receptor α1A): 1.08
α-Adrenoceptor α1A, % inhibition (adrenergic receptor α1A; 1 μM ligand): 67(1 μM) %
